The text below walks through data of patent US3978055A, “Arylamino pyrimidinic derivatives” (priority 1973, dated 1976).

Data set [1] deals with local oedema caused by sub-plantar injection of carraghenine. Kind of data set: Sub-plantar oedema caused by carraghenine (antiinflammatory). It is filed as in vivo, rat. The text has this:
These properties are shown by a diminution of the local oedema caused by the sub-plantar injection of a phlogogenic agent, such as carraghenine, in the rat following the oral administration of derivatives of formula I.

Data set [2] is described as follows: Lethal doses / percentage mortality. The class given is in vivo. Conditions: in vivo, mouse; for LD50: po, Table IX, read-out: DE 50 (second column; DL 50) (converted). The text has this: (§1) As a result of a comparison between the pharmacologically active doses mentioned above, and the lethal doses listed in the following table XIV, the difference between the doses is sufficiently great to permit the utilisation of the derivatives of formula I in therapeutics.

For the next data set, the system named is mouse. Kind of data set: Lethal doses / percentage mortality. The class given is in vivo. Conditions: Table IX.
Text: as §1

Data set [3] deals with analgesic action of dextromoramide in the Eddy test. Kind of data set: Eddy test (potentialisation of dextromoramide analgesia). It is filed as in vivo, mouse. Conditions: Mus musculus, po, read-out: 105 DE (DE 50).
Data set [4] deals with crying and jumping in the Randall and Selitto test. Kind of data set: Randall and Selitto test. The class given is in vivo, rat. Conditions: po; Randall and Selitto test, rat; read-out: 105 DE (DE 50).
The subject of data set [5] is painful stretchings caused by bradykinine. Kind of data set: Analgesic test with bradykinine (painful stretchings). The class given is in vivo, mouse.
Data set [6] concerns number of explorations in the escape enclosure. Kind of data set: Number of explorations in the escape enclosure (sedative properties). Conditions: po. The class given is in vivo, mouse.
The subject of data set [7] is number of explorations in the actimeter. Kind of data set: Number of explorations in an actimeter having luminous beams and photoelectric cells (sedative properties). The class given is in vivo. Conditions: mouse, oral, read-out: DE 50, number of explorations in the actimeter. Here is the method: The derivatives of formula I, administered by oral means to the mouse, reduce the number of explorations in the escape enclosure and in an actimeter having luminous beams and photoelectric cells.
Also, the DE 50 of the derivative of code No. 730 229 is 82mg/kg/p.o. for the test on the number of explorations in the escape enclosure and 120mg/kg/p.o. for the test on the number of explorations in the actimeter.

The next data set relates to volume of urine emitted. Kind of data set: Augmentation of urinary elimination (diuretic properties). Conditions: po; mouse, 25mg/kg/p.o., 6 hours; read-out: Percentage augmentation of urinary elimination. It is filed as in vivo. The method, then:
The derivatives of formula I, administered by oral means to the mouse, simultaneously with a volume of 1ml of an isotonic solution of sodium chloride per 25g of the corporeal weight of the mouse, are capable of provoking an augmentation of the volume of urine emitted by reference to control animals, the volume being measured for 6 hours following administration.
The following Table VII indicates, by way of example the percentage augmentation of urinary elimination resulting from the administration of 25mg/kg/p.o. of different derivatives of formula I.

The test system of data set [8] is painful stretchings caused by phenylbenzoquinone. Kind of data set: Analgesic test with phenylbenzoquinone (painful stretchings). It is filed as in vivo. The settings on record: Mus musculus, po; for ED50: read-out: 105 DE (DE 50); for inhibition in vivo at 100 mg/kg: read-out: Percentage of diminution of the number of painful stretchings.
Data set [9] concerns pain threshold in the dentary pulp stimulation test. Kind of data set: Dentary pulp stimulation test. It is filed as in vivo. Conditions: rabbit, 50 mg/kg rectally. The text has this:
Moreover, the derivatives of formula I, administered rectally to a rabbit, enabled the pain threshold to be raised in the dentary pulp stimulation test.
As an example, the following table XI gives the results of a comparative study between the activity of derivative code number 730 229 and that of glaphenine, the activities being estimated by the dentary stimulation test

In data set [10] the test system is painful stretchings caused by acetic acid. Kind of data set: Analgesic test with acetic acid (painful stretchings). The class given is in vivo, mouse. The settings on record: po; test with acetic acid, mouse; read-out: 105 DE (DE 50).
Data set [11] has as its system arterial pressure of an anaesthetised rat. Kind of data set: Increase in arterial pressure of anaesthetised rat (hypertensive properties). The class given is in vivo. The settings on record: 2 mg/kg/i.v. Here is the method: Administered by intraveinous means, the derivatives of formula I provoke an increase in the arterial pressure of an anaosthetised rat.
By way of example, the results obtained by the administration of 2 mg/kg/i.v. of different derivatives of formula I are listed in the following Table III.

Data set [12] has as its system isolated heart of the guinea-pig. Kind of data set: Force of contractions on isolated heart (positive inotrope action). Here is the method:
Additionally, the derivative of Code No. 730 712 added to the conserving medium in a concentration of 1 μg/ml, permit an augmentation of 140% in the force of contractions on the isolated heart of the guinea- pig.

In a further data set the test system is Shay ulcers. Kind of data set: Gastric ulcers provoked by tying of the pylorus (Shay ulcers). It is filed as in vivo. The settings on record: intraduodenal; rat, 50mg/kg/i.d.; read-out: Percentage reduction of shay ulcers. The method, then: The derivatives of formula I, administered by oral means, reduce the extent of gastric ulcers provoked in a rat by tying of the pylorus (Shay ulcers)
Table IV indicated, by way of example, the results obtained by the administration of 50mg/kg/i.d. of different derivatives of formula I.

For data set [13], the system named is isolated duodenum of the rat. Kind of data set: Contractural action of barium chloride in isolated duodenum (spasmolytic). The settings on record: papaverine as standard. The method, then:
The derivatives of formula I introduced in the conserving medium, are capable of opposing the contractural action of barium chloride in the isolated duodenum of the rat. This activity is evaluated taking papaverine as standard.

The test system of data set [14] is mortality caused by strychnine. Kind of data set: Mortality caused by sub-cutaneous injection of strychnine (myorelaxant). It is filed as in vivo. The settings on record: mouse, 100 mg/kg/p.o. The method, then: The derivatives of formula I, preventively administered by oral means to the mouse, reduce the mortality caused by the sub-cutaneous injection of strychnine.
Thus, the derivative of Code No. 72608, administered in a dose of 100 mg/kg/p.o., permits a 50 % protection against the lethality of strychnine.

Data set [15] deals with bronchoconstriction provoked by acetylcholine. Kind of data set: Bronchoconstriction provoked by intravenous acetylcholine, Konzett method. The class given is in vivo. Conditions: guinea-pig, intraperitoneal injection of 100mg/kg. The method, then: Injected by intraduodenal means, the derivatives of formula I are capable of opposing the bronchoconstriction provoked in the guinea - pig by the intraveinous injection of acetylcholine and evaluated by the Konzett method.
By way of example, the following Table VI lists the percentage inhibition of the bronchoconstriction following the intraperitoneal injection of 100mg/kg of different derivatives of formula I.

The structures appear in SMILES notation.

In general, mortality refers to the share of the test organisms that died. Low values mean more survivors, high ones fewer survivors. For the compound `Cc1cc(Nc2ccc(OCCN3CCOCC3)cc2)nc(-c2ccccc2)n1` [730 229], the “antiinflammatory activity compared with reference compounds” value in data set [1] (comparison of Table XIII) is “clearly superior to that of amidopyrine and acetylsalicylic acid, and hardly inferior to that of glaphenine”. In addition, the ED50 amounted to 22 mg/kg in data set [1] (po, antiinflammatory activity, rat, read-out: DE 50 (the source's name)); 23 mg/kg in data set [3]; 45 mg/kg in data set [4]; 45 mg/kg in data set [5] (Mus musculus, po, read-out: 105 DE (DE 50)); 82 mg/kg in data set [6] (Mus musculus, read-out: DE 50, number of explorations in the escape enclosure); 120 mg/kg in data set [7]. For the same compound, the results for the ED50 in [8] and in [10] were 10 mg/kg and 70 mg/kg, respectively. Also, the mortality in [2] (2 800 mg/kg/PO) was around 50%. Besides, the LD50 in data set [2] was 2800 mg/kg. The “DE 50 (second column; DL 50)” value in the data set on mouse was 2 800 mg/kg/PO. The change in vivo at 25 mg/kg with volume of urine emitted was 129%. Besides, the Duration of action in data set [9] was 2 h. For the same compound, the “Number of rabbits whose pain threshold is increased by 0,5 V” value in data set [9] was 7/10. Moreover, the Peak action in data set [9] is listed as 1 h.

Take `Cc1cc(Nc2ccc(OCCN3CCOCC3)cc2)nc(-c2cccc(C(F)(F)F)c2)n1` [730 712]: the mortality in data set [2] (2000 mg/kg, 2 000 mg/kg/PO) amounted to 0%. Further, in data set [11], the “Percentage augmentation of arterial pressure” value is 23%. For the same compound, the inhibition in vivo at 100 mg/kg in data set [6] (mouse, escape enclosure, 100mg/kg/p.o., read-out: Percentage diminution of number of explorations) was 32%; in data set [8] it was 60%. Moreover, the activation at 1 µg/mL in data set [12] (Cavia porcellus, 1 μg/ml, read-out: augmentation in the force of contractions) was determined as 140%. Besides, the change in vivo at 25 mg/kg in the data set on volume of urine emitted turned out to be 90%.

On to `Cc1cc(Nc2ccc(OCCN3CCCC3)cc2)nc(-c2ccccc2)n1` [730 218], for which, in [2] (1 2500 mg/kg/PO), the mortality was around 50%. The LD50 in data set [2] is 1500 mg/kg. In the data set on mouse, the “DE 50 (second column; DL 50)” value was 1 500 mg/kg/PO. The ED50 in data set [3] was determined as 50 mg/kg; in data set [8], 37 mg/kg. Besides, in data set [5] (test with bradykinine, 100 mg/kg/PO), the “Percentage of diminution of the number of painful stretchings” value was 40%. In addition, the positive inotrope action entry in [12] (0.5 μg/ml) is “positive inotrope action”.

`CCCN(CCC)CCOc1ccc(Nc2cc(C)nc(-c3ccccc3)n2)cc1` [730 282] registered a mortality in data set [2] (1000 mg/kg, 1 000 mg/kg/PO) of around 50%. Moreover, in data set [8], the inhibition in vivo at 100 mg/kg came out at 73%. Further, the inhibition in vivo at 50 mg/kg in the data set with Shay ulcers was 50%. Besides, in data set [13], the “spasmolytic activity relative to papaverine” value is reported as “double to that of papaverine”.

With `Cc1cc(Nc2ccccc2C(N)=O)nc(-c2ccc3c(c2)OCO3)n1` [72 608], the “protection against the lethality of strychnine” value in [14] came to 50%. Further, the mortality in data set [2] (1 600 mg/kg/PO) is around 50%. Besides, in data set [15], the “Percentage inhibition of bronchoconstriction” value was 65%. Besides, the inhibition in vivo at 100 mg/kg in data set [8] came out at 55%.
